Data taken from patent US11590117B2, “Treatment of a hematologic malignancy with 2-(4-chlorophenyl)-n-((2-(2,6-dioxopiperidin-3-yl)-1-oxoisoindolin-5-yl)methyl)-2,2-difluoroacetamide” (priority 2016, dated 2023).
Read-outs that look alike come from different tables or passages of the source.

Tests used:
Assay in all cases: IncuCyte Kinetic Caspase-3/7 Apoptosis Assay
Format in all cases: cell-based
Settings in all cases: Homo sapiens, read-out: Compound 1-induced Apoptosis EC50
TF-1 = test system: TF-1
Excerpt: (§1) Methods. Acute Myeloid Leukemia Cell Line Panel: Human AML cell lines, AML-193, F36-P, GDM-1, HL-60, HNT-34, Kasumi-1, Kasumi-3, KG-1, KG-1a, ML-2, MOLM-13, MUTZ-8, MV-4-11, NOMO-1, OCI-AML2, OCI-AML3, SIG-M5, TF-1, THP-1, and UT-7 were obtained from American Type Culture Collection (ATCC; Manassas, Va.) and Deutsche Sammlung von Mikroorganismen und Zellkulturen (DSMZ) (Germany) cell banks. The AML panel includes cell line(s) from each FAB classification (M0-M7) (Table 7).
(§2) Cell Culture Conditions: Cell lines were maintained in growth media containing 20% fetal bovine serum (FBS) (Hyclone Cat no. SH30910.03, Lot no. AZF188864; Corning REFno. 35-010-CV, Lot no. 35010124) supplemented with or without 10 ng/mL human recombinant granulocyte-macrophage colony stimulating factor (Sigma-Aldrich Cat no. SRP3050) (Table 8). Medium was purchased from ATCC (Cat no. 30-2001, 30-2002, 30-2003, 30-2005) and Gibco (REF no. 12561-056). Human recombinant granulocyte macrophage colony stimulating factor (GM-CSF) was expressed in Escherichia coli. The cell doubling times for each cell line were provided by ATCC and DSMZ. Cells were maintained in humidified incubators at 5% carbon dioxide (CO2). All cell lines were acclimated to Eagle's minimal essential medium (EMEM)+20% FBS with or without GM-CSF over 2 to 4 weeks prior to live cell imaging using IncuCyte Zoom (Essen Biosciences). The use of EMEM was necessary to eliminate background fluorescence caused by riboflavin in most media.
(§3) Incubation of Cell Cultures with Compound 1: Compound 1 was provided for studies by Celgene chemistry group at a stock concentration of 30 mM in 20 μL dimethyl sulfoxide (DMSO) frozen. Costar 96-well cell culture plates (Corning Cat no. 3595) were coated with 100 μL of 10 µg/mL fibronectin (Sigma-Aldrich Cat no. F1141) for 4 hours at 37° C. and immediately used or refrigerated overnight for later use. Cells (3000 to 6000 cells) were plated in growth medi in fibronectin-coated 96-well plates and incubated for a minimum of a few hours to overnight. Cells were incubated with a 12-point concentration response in triplicate with Compound 1 ([…]) including DMSO and Media controls. A 3-fold serial dilution of Compound 1 starting from a concentration of 200 μM in 0.6% DMSO (diluted in Media) was performed. For most sensitive cell lines, a 3-fold serial dilution of Compound 1 starting from a concentration of 20 μM in 0.6% DMSO (diluted in media) was performed. A volume of 5 μL or 10 μL for each dilution was added to 100 μL or 200 μL cells, respectively (0.3% DMSO final) and incubated for live cell imaging.
(§4) Live Cell Imaging on IncuCyte Zoom: Following incubation of cells with Compound 1, diluted Caspase 3/7 reagent (Essen Biosciences Cat no. 4440) is added to each well. The Caspase-3/7 reagent couples the activated caspase-3/7 recognition motif (DEVD) to NucView™488, a DNA intercalating dye. The cleavage of substrate by activated caspase-3/7 results in the release of the DNA dye and green fluorescent staining of nuclear DNA. This allows imaging of cells undergoing caspase-3/7 mediated apoptosis over time. Caspase-3/7 activation was quantified using the IncuCyte™ ZOOM basic analyzer. Red-labeled cell lines were also imaged over time using the IncuCyte™ ZOOM basic analyzer, for determination of both cell doubling time and Compound 1 effect on cell viability. Experiments were performed at least two times in each cell line.
(§5) Next, a 4 parameter log-logistic model was used to determine relative EC50 at each time point by the ‘drm’ function from the R ‘drc’ package (Ritz C, Streibig J C. Bioassay Analysis using R. J. Statist. Software 2005; 12(5):1-22). Goodness of fit was measured by R squared (coefficient of determination or the amount of variation explained by the model fit) of ≥80%, and EC50 parameter was assessed by having a ratio of standard error to the parameter of ≤40%, and the presence of at least one concentration point above and below the reported EC50. […]

OCI-AML2 = test system: OCI-AML2
Excerpt: as §1, §2, §3, §4, §5

AML-193 = test system: AML-193
Excerpt: as §1, §2, §3, §4, §5

KG-1 = test system: KG-1
Excerpt: as §1, §2, §3, §4, §5

UT-7 = test system: UT-7
Excerpt: as §1, §2, §3, §4, §5

GDM-1 = test system: GDM-1
Excerpt: as §1, §2, §3, §4, §5

SIG-M5 = test system: SIG-M5
Excerpt: as §1, §2, §3, §4, §5

HNT-34 = test system: HNT-34
Excerpt: as §1, §2, §3, §4, §5

MUTZ-8 = test system: MUTZ-8
Excerpt: as §1, §2, §3, §4, §5

HL-60 = test system: HL-60
Excerpt: as §1, §2, §3, §4, §5

KG-1a = test system: KG-1a
Excerpt: as §1, §2, §3, §4, §5

MV-4-11 = test system: MV-4-11
Excerpt: as §1, §2, §3, §4, §5

## O=C1CCC(N2Cc3cc(CNC(=O)C(F)(F)c4ccc(Cl)cc4)ccc3C2=O)C(=O)N1 (stereo not shown) [Compound 1, 2-(4-chlorophenyl)-N-((2-(2,6-dioxopiperidin-3-yl)-1-oxoisoindolin-5-yl)methyl)-2,2-difluoroacetamide]
TF-1; 48 hr
  EC50: 129 nM
TF-1; 72 hr
  EC50: 65 nM
TF-1; 96 hr
  EC50: 64 nM
OCI-AML2; 24 hr
  EC50: 436 nM
OCI-AML2; 48 hr
  EC50: 81 nM
OCI-AML2; 72 hr
  EC50: 41 nM
OCI-AML2; 96 hr
  EC50: 38 nM
AML-193; 24 hr
  EC50: 254 nM
AML-193; 48 hr
  EC50: 89 nM
AML-193; 72 hr
  EC50: 47 nM
AML-193; 96 hr
  EC50: 60 nM
KG-1; 12 hr
  EC50: 53 nM
KG-1; 24 hr
  EC50: 108 nM
KG-1; 48 hr
  EC50: 39 nM
KG-1; 72 hr
  EC50: 26 nM
KG-1; 96 hr
  EC50: 25 nM
UT-7; UT7, 48 hr
  EC50: 231 nM
UT-7; UT7, 72 hr
  EC50: 218 nM
UT-7; UT7, 96 hr
  EC50: 168 nM
GDM-1; 12 hr
  EC50: 110 nM
GDM-1; 24 hr
  EC50: 313 nM
GDM-1; 48 hr
  EC50: 49 nM
GDM-1; 72 hr
  EC50: 33 nM
GDM-1; 96 hr
  EC50: 25 nM
SIG-M5; 24 hr
  EC50: 148 nM
SIG-M5; 48 hr
  EC50: 97 nM
SIG-M5; 72 hr
  EC50: 50 nM
SIG-M5; 96 hr
  EC50: 33 nM
HNT-34; 24 hr
  EC50: 7 nM
HNT-34; 48 hr
  EC50: 4 nM
HNT-34; 96 hr
  EC50: 2 nM
MUTZ-8; 24 hr
  EC50: 88 nM
MUTZ-8; 48 hr
  EC50: 40 nM
MUTZ-8; 72 hr
  EC50: 18 nM
MUTZ-8; 96 hr
  EC50: 15 nM
HL-60; 24 hr
  EC50: 73 nM
HL-60; 48 hr
  EC50: 15 nM
HL-60; 72 hr
  EC50: 8 nM
KG-1a; 24 hr
  EC50: 226 nM
KG-1a; 48 hr
  EC50: 145 nM
KG-1a; 72 hr
  EC50: 186 nM
MV-4-11; MV4-11, 12 hr
  EC50: 227 nM
MV-4-11; MV4-11, 24 hr
  EC50: 167 nM
MV-4-11; MV4-11, 48 hr
  EC50: 32 nM
MV-4-11; MV4-11, 72 hr
  EC50: 16 nM
MV-4-11; MV4-11, 96 hr
  EC50: 17 nM
